pIC50: −log10 of the molar value. Read-outs that look alike come from different tables or passages of the source.
Legend:
Type in all cases: cell-based, human
[1] = test system: HTT mRNA; experiment: RT-qPCR splicing assay, HTT canonical (CJ) and alternative (AJ) junction mRNA; conditions: Homo sapiens; for AC50: read-out: HTT AJ (AC50, increase in AJ mRNA)
Experimental: (§1) Compounds described herein were used to modulate RNA transcript abundance in cells. The expression of a target mRNA was measured by detecting the formation of an exon-exon junction in the canonical transcript (CJ). A compound mediated exon-inclusion event was detected by observing an increase in formation of a new junction with an alternative exon (AJ). Real-time qPCR assays were used to detect these splicing switches and interrogate the potency of various compounds towards different target genes. A high-throughput real time quantitative PCR (RT-qPCR) assay was developed to measure these two isoforms of the mRNA (CJ and AJ) for exemplary genes, such as HTT, SMN2, and MYB, together with a control housekeeping gene, GAPDH or GUSB or PPIA, used for normalization. Briefly, the A673 or K562 cell line was treated with various compounds described herein (e.g., compounds of Formula (I), (II), (III), (IV)). After treatment, the levels of the HTT, MYB, or SMN2 mRNA targets were determined from each sample of cell lysate by cDNA synthesis followed by qPCR.
(§2) The A673 cell line was cultured in DMEM with 10% FBS. Cells were diluted with full growth media and plated in a 96-well plate (15,000 cells in 100ul media per well). The plate was incubated at 37° C. with 5% CO2 for 24 hours to allow cells to adhere. An 11-point 3-fold serial dilution of the compounds was made in DMSO then diluted in media in an intermediate plate. Compounds were transferred from the intermediate plate to the cell plate with the top dose at a final concentration of 10 uM in the well. Final DMSO concentration was kept at or below 0.25%. The cell plate was returned to the incubator at 37° C. with 5% CO2 for an additional 24 hours.
(§3) The K562 cell line was cultured in IMDM with 10% FBS. For K562, cells were diluted with full growth media and plated in either a 96-well plate (50,000 cells in 50 uL media per well) or a 384-well plate (8,000-40,000 cells in 45 uL media per well). An 11-point 3-fold serial dilution of the compounds were made in DMSO then diluted in media in an intermediate plate.
(§4) Compound was transferred from the intermediate plate to the cell plate with the top dose at a final concentration of 10 uM in the well. Final DMSO concentration was kept at or below 0.25%.
(§5) Final volume was 100 uL for 96-well plate and 50 uL for 384-well plate. The cell plate was then placed in an incubator at 37° C. with 5% CO2 for 24 hours.
(§6) The cells were then gently washed with 50 uL-100 uL cold PBS before proceeding to addition of lysis buffer. 30 uL-50 μL of room temperature lysis buffer with DNAse I (and optionally RNAsin) was added to each well. Cells were shaken/mixed thoroughly at room temperature for 5-10 minutes for lysis to take place and then 3 uL-5 μL of room temperature stop solution was added and wells were shaken/mixed again. After 2-5 minutes, the cell lysate plate was transferred to ice for RT-qPCR reaction setup. The lysates could also be frozen at −80° C. for later use.
(§7) In some cases, a direct lysis buffer was used. An appropriate volume of 3× lysis buffer (10 mM Tris, 150 mM NaCl, 1.5%-2.5% Igepal and 0.1-1 U/uL RNAsin, pH 7.4) was directly added to either K562 or A673 cells in media and mixed by pipetting 3 times. The plates were then incubated at room temperature with shaking/rocking for 20-50 minutes to allow for lysis to take place. After this time, the cell lysate plate was transferred to ice to set up for the RT-qPCR reactions. The lysates could also be frozen at −80° C. for later use.
(§8) To set up 10 uL RT-qPCR reactions, cell lysates were transferred to 384-well qPCR plates containing the master mix according to the table below. The plates were sealed, gently vortexed, and spun down before the run. The volumes were adjusted accordingly in some instances where the reaction was carried in 20 μL. The table below summarizes the components of the RT-qPCR reactions: […]

[2] = test system: MYB mRNA; experiment: RT-qPCR splicing assay, MYB canonical (CJ) and alternative (AJ) junction mRNA; conditions: Homo sapiens; for AC50: read-out: MYB AJ (AC50, increase in AJ mRNA)
Experimental: as §1, §2, §3, §4, §5, §6, §7, §8

[3] = test system: SMN2 mRNA; experiment: RT-qPCR splicing assay panel, SMN2 canonical junction (CJ) mRNA; conditions: Homo sapiens
Experimental: as §1, §2, §3, §4, §5, §6, §7, §8

[4] = test system: Target C mRNA; experiment: RT-qPCR splicing assay panel, Target C canonical junction (CJ) mRNA; conditions: Homo sapiens
Experimental: as §1, §2, §3, §4, §5, §6, §7, §8

[5] = 24 h, Table 3A, A673 or K562 cells, 24 h treatment
[6] = 24 h, Table 3A, A673 or K562 cells, 24 h treatment, read-out: HTT CJ (IC50, decrease in CJ mRNA)
[7] = canonical junction (CJ) mRNA, RT-qPCR panel, Table 4A, read-out: HTT, decrease in CJ mRNA levels, IC50
[8] = 24 h, Table 3A, A673 or K562 cells, 24 h treatment, read-out: MYB CJ (IC50, decrease in CJ mRNA)
[9] = canonical junction (CJ) mRNA, RT-qPCR panel, Table 4A, read-out: MYB, decrease in CJ mRNA levels, IC50
[10] = canonical junction (CJ) mRNA, RT-qPCR panel, Table 4A, read-out: SMN2, decrease in CJ mRNA levels, IC50
[11] = canonical junction (CJ) mRNA, RT-qPCR panel, Table 4A, read-out: Target C, decrease in CJ mRNA levels, IC50
[12] = 24 h, Table 3B, A673 or K562 cells, 24 h treatment

| pIC50 [1, 6] | pIC50 [1, 7] | pIC50 [2, 8] | pIC50 [2, 9] | pIC50 [3, 10] | pIC50 [4, 11] | pIC50 ([1]; 24 h, Table 3B, A673 or K562 cells, 24 h treatment, read-out: HTT CJ (IC50, decrease in CJ mRNA)) | pIC50 ([1]; Table 4B, gene panel, read-out: HTT (IC50, decrease in CJ mRNA levels)) | pIC50 ([2]; 24 h, Table 3B, A673 or K562 cells, 24 h treatment, read-out: MYB CJ (IC50, decrease in CJ mRNA)) | pIC50 ([2]; Table 4B, gene panel, read-out: MYB (IC50, decrease in CJ mRNA levels)) | pIC50 ([3]; Table 4B, gene panel, read-out: SMN2 (IC50, decrease in CJ mRNA levels)) | pIC50 ([4]; Table 4B, gene panel, read-out: Target C (IC50, decrease in CJ mRNA levels)) | Structure (SMILES) | AC50 [1, 5] [nM] | AC50 [2, 5] [nM] | AC50 [1, 12] [nM] | AC50 [2, 12] [nM] |
| --- | --- | --- | --- | --- | --- | --- | --- | --- | --- | --- | --- | --- | --- | --- | --- | --- |
| > 7.00 | > 7.00 | 5.00 to 6.00 | 5.00 to 6.00 | > 7.00 | 6.00 to 7.00 |  |  |  |  |  |  | CN(C1CCC1)[C@@H]1CCN(c2ccc(-c3cc(F)c(-c4cn[nH]c4)cc3O)nn2)C1 [Compound 314, 2-{6-[(3R)-3-[cyclobutyl(methyl)amino]pyrrolidin-1-yl]pyridazin-3-yl}-4-fluoro-5-(1H-pyrazol-4-yl)phenol] | 100 to 1000 | 100 to 1000 |  |  |
| > 7.00 | > 7.00 | 6.00 to 7.00 | 6.00 to 7.00 | > 7.00 | 6.00 to 7.00 |  |  |  |  |  |  | Cc1ncc(-c2cc(O)c(-c3ccc(OC4CC(C)(C)NC(C)(C)C4)nn3)cc2F)s1 [Compound 385] | < 100 | 100 to 1000 |  |  |
| 5.00 to 6.00 | 5.00 to 6.00 | < 5.00 | < 5.00 | 5.00 to 6.00 | < 5.00 |  |  |  |  |  |  | Cc1ncc(-c2cc(O)c(-c3ccc(N4CCC(CNC(C)(C)C)C4)nn3)cc2F)s1 (stereo not shown) [Compound 333] | > 10000 | > 10000 |  |  |
| > 7.00 | > 7.00 | 6.00 to 7.00 | 6.00 to 7.00 | > 7.00 | 6.00 to 7.00 |  |  |  |  |  |  | Cn1cc2cc(-c3ccc(-c4ccc(N5CCC(NC6CCC6)C5)nn4)c(O)c3)cc(F)c2n1 (stereo not shown) [Compound 328] | < 100 | 100 to 1000 |  |  |
| 5.00 to 6.00 | 5.00 to 6.00 | < 5.00 | < 5.00 | 5.00 to 6.00 | < 5.00 |  |  |  |  |  |  | COc1cc(-c2cc(O)c(-c3ccc(N4CCC(NCC5CC5)C4)nn3)cc2F)ncn1 (stereo not shown) [Compound 417] | 1000 to 10000 | 1000 to 10000 |  |  |
|  |  |  |  |  |  | < 5.00 | < 5.00 | < 5.00 | < 5.00 | < 5.00 | < 5.00 | Cc1nc2c(F)c(O)c(-c3ccc(N4CC[C@H](NC(C)(C)C)C4)nn3)cc2o1 [Compound 843] |  |  | > 10000 | > 10000 |

The remaining lines, values behind:

| Structure (SMILES) | pIC50 [1, 6] | pIC50 [1, 7] | pIC50 [2, 8] | pIC50 [2, 9] | pIC50 [3, 10] | pIC50 [4, 11] | pIC50 ([1]; 24 h, Table 3B, A673 or K562 cells, 24 h treatment, read-out: HTT CJ (IC50, decrease in CJ mRNA)) | pIC50 ([1]; Table 4B, gene panel, read-out: HTT (IC50, decrease in CJ mRNA levels)) | pIC50 ([2]; 24 h, Table 3B, A673 or K562 cells, 24 h treatment, read-out: MYB CJ (IC50, decrease in CJ mRNA)) | pIC50 ([2]; Table 4B, gene panel, read-out: MYB (IC50, decrease in CJ mRNA levels)) | pIC50 ([3]; Table 4B, gene panel, read-out: SMN2 (IC50, decrease in CJ mRNA levels)) | pIC50 ([4]; Table 4B, gene panel, read-out: Target C (IC50, decrease in CJ mRNA levels)) | AC50 [1, 5] [nM] | AC50 [2, 5] [nM] | AC50 [1, 12] [nM] | AC50 [2, 12] [nM] |
| --- | --- | --- | --- | --- | --- | --- | --- | --- | --- | --- | --- | --- | --- | --- | --- | --- |
| Cn1ncc(-c2ccc(-c3ccc(N4CC[C@@H](NC(C)(C)C)C4)nn3)c(O)c2)cc1=O [Compound 297, 5-(4-{6-[(3R)-3-(tert-butylamino)pyrrolidin-1-yl]pyridazin-3-yl}-3-hydroxyphenyl)-2-methylpyridazin-3-one] | > 7.00 | > 7.00 | > 7.00 | > 7.00 | > 7.00 | > 7.00 |  |  |  |  |  |  | < 100 | < 100 |  |  |
| Cc1cc(-c2ccc(-c3ccc(N4CC[C@@H](NC5CCC5)C4)nn3)c(O)c2)cnn1 [Compound 292, 2-{6-[(3R)-3-(cyclobutylamino)pyrrolidin-1-yl]pyridazin-3-yl}-5-(6-methylpyridazin-4-yl)phenol] | < 5.00 | < 5.00 | < 5.00 | < 5.00 | 5.00 to 6.00 | < 5.00 |  |  |  |  |  |  | > 10000 | > 10000 |  |  |
| Cn1ccc(-c2ccc(-c3ccc(N4CCC(NC5CCC5)C4)nn3)c(O)c2)nc1=O (stereo not shown) [Compound 306] | 5.00 to 6.00 | 5.00 to 6.00 | 5.00 to 6.00 | 5.00 to 6.00 | 6.00 to 7.00 | 5.00 to 6.00 |  |  |  |  |  |  | 1000 to 10000 | 1000 to 10000 |  |  |
| CN(C1CCN(c2ccc(-c3cc(F)c(-c4cn[nH]c4)cc3O)nn2)C1)C(C)(C)C (stereo in doubt) [Compound 119, 2-{6-[(3S)-3-[tert-butyl(methyl)amino]pyrrolidin-1-yl]pyridazin-3-yl}-4-fluoro-5-(1H-pyrazol-4-yl)phenol] | > 7.00 | > 7.00 | > 7.00 | > 7.00 | > 7.00 | > 7.00 |  |  |  |  |  |  | < 100 | < 100 |  |  |
| CC1(NC2CCN(c3ccc(-c4cc(F)c(-c5cn[nH]c5)cc4O)nn3)C2)CC1 (stereo not shown) [Compound 111, 4-fluoro-2-(6-{3-[(1-methylcyclopropyl)amino]pyrrolidin-1-yl}pyridazin-3-yl)-5-(1H-pyrazol-4-yl)phenol] | > 7.00 | > 7.00 | > 7.00 | > 7.00 | > 7.00 | > 7.00 |  |  |  |  |  |  | < 100 | < 100 |  |  |
| COc1cc(-c2cc(O)c(-c3ccc(N4CC[C@](C)(NC5CCC5)C4)nn3)cc2F)cnn1 (single isomer, unassigned) [Compound 309, 2-{6-[3-(cyclobutylamino)-3-methylpyrrolidin-1-yl]pyridazin-3-yl}-4-fluoro-5-(6-methoxypyridazin-4-yl)phenol] | > 7.00 | > 7.00 | 5.00 to 6.00 | 5.00 to 6.00 | > 7.00 | 6.00 to 7.00 |  |  |  |  |  |  | 100 to 1000 | 1000 to 10000 |  |  |
| CC(C)(C)N[C@H]1CCN(c2ccc(-c3ccc(-c4cn[nH]c4)cc3O)nn2)C1 [Compound 101, 2-{6-[(3S)-3-(tert-butylamino)pyrrolidin-1-yl]pyridazin-3-yl}-5-(1H-pyrazol-4-yl)phenol] | > 7.00 | > 7.00 | > 7.00 | > 7.00 | > 7.00 | > 7.00 |  |  |  |  |  |  | < 100 | < 100 |  |  |
| CCc1cc(-c2ccc(-c3ccc(N4CC[C@H](NC5CCC5)C4)nn3)c(O)c2)cnn1 [Compound 278] | 5.00 to 6.00 | 5.00 to 6.00 | 5.00 to 6.00 | 5.00 to 6.00 | 5.00 to 6.00 | < 5.00 |  |  |  |  |  |  | > 10000 | > 10000 |  |  |

Source: patent publication US20250333397A1 (REMIX THERAPEUTICS INC., priority 2021, published 2025)
